Read-outs that look alike come from different tables or passages of the source.
Target: T1, SFRP-1 (Homo sapiens, UniProt Q8N474)
T1 sequence (Q8N474 32-314): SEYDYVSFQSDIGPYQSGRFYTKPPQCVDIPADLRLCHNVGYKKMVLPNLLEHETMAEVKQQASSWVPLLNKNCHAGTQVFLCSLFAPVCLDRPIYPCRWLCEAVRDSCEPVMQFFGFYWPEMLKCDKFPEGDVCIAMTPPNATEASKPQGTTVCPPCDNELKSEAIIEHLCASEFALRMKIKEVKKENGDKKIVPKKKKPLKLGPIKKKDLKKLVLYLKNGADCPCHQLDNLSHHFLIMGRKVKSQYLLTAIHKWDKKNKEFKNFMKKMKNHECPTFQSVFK
Assay: Cell-based assay for in vitro measurement of SFRP-1/SARP2 antagonist activity (U2OS cells co-transfected with 16x TCF-tk-Luciferase reporter, Wnt and hSFRP-1);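 further: U2OS cells co-transfected with a TCF-tk luciferase reporter, a Wnt vector, hSFRP-1 or empty vector and CMV-βgal, luciferase luminescence read in cell lysates alongside βgal activity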

[1] = U2OS, read-out: Fold Induction with SFRP-1, Conc 15 μM, with SFRP-1, fold induction over SFRP-1 control, single dose
[2] = U2OS, read-out: Fold Induction without SFRP-1, Conc 15 μM, without SFRP-1, single dose
[3] = U2OS, read-out: Fold Induction with SFRP-1, Conc 30 μM, with SFRP-1, fold induction over SFRP-1 control, single dose
[4] = U2OS, read-out: Fold Induction without SFRP-1, Conc 30 μM, without SFRP-1, single dose
[5] = U2OS, read-out: Fold Induction with SFRP-1, Conc 15 μM, single dose, luciferase reporter, fold induction over SFRP-1 control, cells with SFRP-1
[6] = U2OS, read-out: Fold Induction without SFRP-1, Conc 15 μM, single dose, luciferase reporter, cells without SFRP-1 (specificity control)
[7] = U2OS, read-out: Fold Induction with SFRP-1, Conc 20 μM, with SFRP-1, fold induction over SFRP-1 control, single dose
[8] = U2OS, read-out: Fold Induction without SFRP-1, Conc 20 μM, without SFRP-1, single dose

Structure (SMILES) | fold induction at 15 µM [1] | fold induction at 15 µM [2] | also measured
CC(C)(O)Cc1ccc(S(=O)(=O)c2ccccc2)cc1S(=O)(=O)NCCc1ccccc1 [Example 341, 2-(2-hydroxy-2-methylpropyl)-N-(2-phenylethyl)-5-(phenylsulfonyl)benzenesulfonamide] | 1.5 | 1.1 | 
Cc1cc(C)c(S(=O)(=O)c2ccccc2)cc1S(=O)(=O)NC(C)C(O)c1ccccc1 (stereo not drawn) [Example 393, N-[(trans)-2-hydroxy-1-methyl-2-phenylethyl]-2,4-dimethyl-5-(phenylsulfonyl)benzenesulfonamide] |  |  | Fold Induction with SFRP-1 (Conc 7.5 μM, with SFRP-1, fold induction over SFRP-1 control, single dose): 1.2 fold; Fold Induction without SFRP-1 (Conc 7.5 μM, without SFRP-1, single dose): 1 fold
Cc1ccc(S(=O)(=O)c2ccccc2)cc1S(=O)(=O)NCCCN1CCCC1 [Example 220, 2-methyl-5-(phenylsulfonyl)-N-(3-pyrrolidin-1-ylpropyl)benzenesulfonamide] | 3.6 | 1.8 | 
CCN(CC)CCNS(=O)(=O)c1cc(S(=O)(=O)c2ccccc2)ccc1C [Example 213, N-[2-(diethylamino)ethyl]-2-methyl-5-(phenylsulfonyl)benzenesulfonamide] | 1.8 | 1.3 | 
CCc1ccc(S(=O)(=O)c2ccccc2)cc1S(=O)(=O)NCCc1c[nH]cn1 [Example 225, 2-ethyl-N-[2-(1H-imidazol-4-yl)ethyl]-5-(phenylsulfonyl)benzenesulfonamide] | 3.1 | 0.9 | 
O=S(=O)(NCCN1CCOCC1)c1cccc(S(=O)(=O)c2ccccc2)c1 [Example 191, N-(2-morpholin-4-ylethyl)-3-(phenylsulfonyl)benzenesulfonamide] |  |  | fold induction at 30 µM [3]: 1.2; fold induction at 30 µM [4]: 1.2
Cc1ccc(S(=O)(=O)c2ccccc2)cc1S(=O)(=O)NCC1CCOCC1 [Example 382, 2-methyl-5-(phenylsulfonyl)-N-(tetrahydro-2H-pyran-4-ylmethyl)benzenesulfonamide] | 2.4 | 0.9 | 
COC(=O)C(C)(C)NS(=O)(=O)c1cc(S(=O)(=O)c2ccccc2)ccc1Cl [Example 654, methyl N-{[2-chloro-5-(phenylsulfonyl)phenyl]sulfonyl}-2-methylalaninate] |  |  | fold induction at 15 µM [5]: 1; fold induction at 15 µM [6]: 1
CCOC(=O)C1CCCN(S(=O)(=O)c2cc(S(=O)(=O)c3ccccc3)ccc2Cl)C1 (stereo not shown) [Example 645, ethyl 1-{[2-chloro-5-(phenylsulfonyl)phenyl]sulfonyl}piperidine-3-carboxylate] |  |  | fold induction at 15 µM [5]: 1; fold induction at 15 µM [6]: 1.1
CCOc1ccc(CCNS(=O)(=O)c2cc(S(=O)(=O)c3ccccc3)ccc2OC)cc1OC [Example 158, N-[2-(4-ethoxy-3-methoxyphenyl)ethyl]-2-methoxy-5-(phenylsulfonyl)benzenesulfonamide] | 1.4 | 1.1 | 
C[C@@H](CNS(=O)(=O)c1cccc(S(=O)(=O)c2ccccc2)c1)c1ccccc1 [Example 260, N-[(2R)-2-phenylpropyl]-3-(phenylsulfonyl)benzenesulfonamide] |  |  | fold induction at 20 µM [7]: 1.2; fold induction at 20 µM [8]: 1
Cc1ccc(S(=O)(=O)c2ccc(F)cc2)cc1S(=O)(=O)NCCCN(C)C [Example 174, N-[3-(dimethylamino)propyl]-5-[(4-fluorophenyl)sulfonyl]-2-methylbenzenesulfonamide] | 2.8 | 1.2 | 
CCN(CC)CCCNS(=O)(=O)c1cc(S(=O)(=O)c2ccccc2)ccc1C [Example 218, N-[3-(diethylamino)propyl]-2-methyl-5-(phenylsulfonyl)benzenesulfonamide] | 2.2 | 1.2 | 
C#CCN(CCc1ccc(OC)c(OC)c1)S(=O)(=O)c1cc(S(=O)(=O)c2ccccc2)ccc1C [Example 274, N-[2-(3,4-dimethoxyphenyl)ethyl]-2-methyl-5-(phenylsulfonyl)-N-prop-2-ynylbenzenesulfonamide] | 2 | 1 | 
Cc1ccc(S(=O)(=O)c2ccc(F)cc2)cc1S(=O)(=O)NC(C)C(O)c1ccccc1 (stereo not drawn) [Example 391, 5-[(4-fluorophenyl)sulfonyl]-N-[trans-2-hydroxy-1-methyl-2-phenylethyl]-2-methylbenzenesulfonamide] |  |  | Fold Induction with SFRP-1 (Conc 15 μM, with SFRP-1, fold induction over SFRP-1 control, single dose): 1.8 fold; Fold Induction without SFRP-1 (Conc 15 μM, without SFRP-1, single dose): 1.1 fold
Cc1ccc(S(=O)(=O)c2ccc(C)c(S(=O)(=O)N[C@H]3C[C@@H]3c3ccccc3)c2)cc1 [Example 253, 2-methyl-5-[(4-methylphenyl)sulfonyl]-N-[(1S,2R)-2-phenylcyclopropyl]benzenesulfonamide] |  |  | fold induction at 20 µM [7]: 1.4; fold induction at 20 µM [8]: 0.9

Structure (SMILES) | fold induction at 15 µM [1] | fold induction at 15 µM [2] | also measured
CC(=O)NCCNS(=O)(=O)c1cccc(S(=O)(=O)c2ccccc2)c1 [Example 190, N-[2-({[3-(phenylsulfonyl)phenyl]sulfonyl}amino)ethyl]acetamide] |  |  | fold induction at 30 µM [3]: 1.2; fold induction at 30 µM [4]: 1
Cc1ccc(S(=O)(=O)c2ccccc2)cc1S(=O)(=O)NCCC1CCOCC1 [Example 299, 2-methyl-5-(phenylsulfonyl)-N-(2-tetrahydro-2H-pyran-4-ylethyl)benzenesulfonamide] | 3.1 | 1.1 | 
CCN(CC)CCN1CCN(S(=O)(=O)c2cc(S(=O)(=O)c3ccccc3)ccc2C)CC1 [Example 280, N,N-diethyl-N-[2-(4-{[2-methyl-5-(phenylsulfonyl)phenyl]sulfonyl}piperazin-1-yl)ethyl]amine] | 2.7 | 1.5 | 
Cc1c(S(=O)(=O)NCCCn2ccnc2)cccc1S(=O)(=O)c1ccccc1 [Example 493, N-[3-(1H-imidazol-1-yl)propyl]-2-methyl-3-(phenylsulfonyl)benzenesulfonamide] |  |  | fold induction at 15 µM [5]: 1; fold induction at 15 µM [6]: 1.1
CCOc1cc(CCNS(=O)(=O)c2cc(S(=O)(=O)c3ccccc3)ccc2CC)ccc1OC [Example 148, N-[2-(3-ethoxy-4-methoxyphenyl)ethyl]-2-ethyl-5-(phenylsulfonyl)benzenesulfonamide] | 2.8 | 1.1 | 
Cc1ccc(S(=O)(=O)c2ccc(F)cc2)cc1S(=O)(=O)NCCCN1CCCC1 [Example 178, 5-[(4-fluorophenyl)sulfonyl]-2-methyl-N-(3-pyrrolidin-1-ylpropyl)benzenesulfonamide] | 2.8 | 1.5 | 
Cc1cc(C)c(S(=O)(=O)c2ccccc2)cc1S(=O)(=O)NCC1CCOCC1 [Example 385, 2,4-dimethyl-5-(phenylsulfonyl)-N-(tetrahydro-2H-pyran-4-ylmethyl)benzenesulfonamide] | 2.7 | 1 | 
COCCNS(=O)(=O)c1cc(S(=O)(=O)c2ccc(F)cc2)ccc1C [Example 175, 5-[(4-fluorophenyl)sulfonyl]-N-(2-methoxyethyl)-2-methylbenzenesulfonamide] | 2.5 | 0.9 | 
CCc1ccc(S(=O)(=O)c2ccccc2)cc1S(=O)(=O)N1CCN(CCN(CC)CC)CC1 [Example 286, N,N-diethyl-N-[2-(4-{[2-ethyl-5-(phenylsulfonyl)phenyl]sulfonyl}piperazin-1-yl)ethyl]amine] | 2 | 1.3 | 
Cc1cc(C)c(S(=O)(=O)c2ccccc2)cc1S(=O)(=O)NCC(O)c1cccnc1 (stereo not shown) [Example 737, N-(2-hydroxy-2-pyridin-3-ylethyl)-2,4-dimethyl-5-(phenylsulfonyl)benzenesulfonamide] |  |  | fold induction at 10 µM (U2OS, read-out: Fold Induction with SFRP-1, U2OS cells, single dose 10 μM, luciferase reporter, fold induction over SFRP-1 control): 2.4
Cc1ccc(S(=O)(=O)c2ccccc2)cc1S(=O)(=O)NCCCc1ccccc1 [Example 244, 2-methyl-N-(3-phenylpropyl)-5-(phenylsulfonyl)benzenesulfonamide] | 1.3 | 1.1 | 
Cc1cc(S(=O)(=O)c2ccccc2)cc(S(=O)(=O)NCCC2CCOCC2)c1C [Example 351, 2,3-dimethyl-5-(phenylsulfonyl)-N-[2-(tetrahydro-2H-pyran-4-yl)ethyl]benzenesulfonamide] | 1.5 | 1.3 | 
CCCc1ccc(S(=O)(=O)c2ccccc2)cc1S(N)(=O)=O [Example 557, 5-(Phenylsulfonyl)-2-propylbenzenesulfonamide] |  |  | fold induction at 15 µM [5]: 1.4; fold induction at 15 µM [6]: 1.2
CCc1ccc(S(=O)(=O)c2ccccc2)cc1S(=O)(=O)NCCc1cccc(F)c1 [Example 146, 2-ethyl-N-[2-(3-fluorophenyl)ethyl]-5-(phenylsulfonyl)benzenesulfonamide] | 2.1 | 1.3 | 
Cc1ccc(S(=O)(=O)c2cccnc2)cc1S(=O)(=O)NCCc1ccccn1 [Example 426, 2-methyl-N-(2-pyridin-2-ylethyl)-5-(pyridin-3-ylsulfonyl)benzenesulfonamide] | 1.3 | 0.8 | 
